Assay: Storage test at 60° C. and 68% relative humidity, vitamin A analysed by UPLC
Assay type: physicochemical
Details: storage at 60° C. and 68% RH; 0.825 wt. % vitamin A palmitate in oil; FIGS. 1 to 7
Procedure: Palm oil (SUNIA), and vitamin A palmitate (Vitamin A Palmitate 1.7 MIU/g-DSM) were heated in an oven at 60°. Vitamin A palmitate was not held above 60° C. for longer than 5 minutes to avoid possible degradation. The oil was mixed with vitamin A palmitate in a 0.5 liter Schott bottle and then stirred for 10 minutes in a 50° C. water bath. Initial vitamin A palmitate content was 0.825% in oil (a vitamin A palmitate content of 0.165 wt. % in powdered bran). The total amount of lipid was 100 g. A quantity of 10 g of lipid containing vitamin A palmitate was then mixed with 40 g of powdered rice bran with or without phytic acid (Herba Ingredients) in a mortar during 5 minutes. […]
A quantity of 10 g of lipid containing 0.825 wt. % of vitamin A palmitate was mixed with 40 g of wheat bran in a mortar during 5 minutes. […]
A quantity of 10 g of lipid containing 0.825 wt. % of vitamin A palmitate was mixed with 40 g of maltodextrin DE21 in a mortar during 5 minutes. […]
A quantity of 10 g of lipid containing 0.825 wt. % of vitamin A palmitate and 1.87 g of iron pyrophosphate powder were mixed with 38.13 g of powdered rice bran (Herba Ingredients) in a mortar during 5 minutes. […]
For the storage tests, the crystallizing dishes were transferred into a climatic chamber regulated at 60° C. and 68% relative humidity, before being analyzed. […]

## CCCCCCCCCCCCCCCC(=O)OC/C=C(C)/C=C/C=C(C)/C=C/C1=C(C)CCCC1(C)C [vitamin A palmitate, retinyl palmitate]
  vitamin A stability (degradation curves): very sensitive to temperature and degrades fast

— US12167990B2, “Vitamin composition” (SOCIÉTË DES PRODUITS NESTLË S.A., priority 2016, dated 2024)
